# From patent US4604236A, “Calcitonin analogs” (priority 1985, dated 1986)
# Key:
# [1] = tested on: serum calcium concentration; assay: Biological assay of calcitonin analogs in vivo: reduction of serum calcium concentration versus salmon calcitonin standard, 2×2 parallel line assay; parameters: species or system Rats; conditions: standard used in the assay, independently determined
# Procedure: The biological potency of des-13-serine-salmon calcitonin was determined by comparing the reduction of serum calcium concentration which followed administration by graded doses of des-Ser^13 -SCT and synthetic salmon calcitonin standard. Rats were divided into four groups of seven animals, and each group was assigned at random to a dose of standard or test solution. Low and high doses were chosen from the linear portion of the dose-response curve. For the salmon calcitonin standard, the values were 0.7 and 2.1 ng. peptide/100 g. body weight (BW). This dose approximates 3 and 9 MU/100 g. BW. Peptides were given by subcutaneous injection (0.2 ml/100 g. BW) and blood was withdrawn 1 hour later for serum calcium determination. Sera are processed and analyzed within two hours of collection. […]. Results were analyzed by a 2×2 parallel line assay [Gaddum, J. H., J. Pharm. Pharmacol., 6, 345 (1953)]. The standard salmon calcitonin used was independently determined to contain greater than 4,000 IU/mg. des-Ser^13 -SCT assayed at 4650 IU/mg.
# [2] = literature values; cited from earlier work
Compound,potency content of the standard salmon calcitonin [1],hypocalcemic potency [2]
"CC(C)C[C@H](NC(=O)[C@H](CCCCN)NC(=O)CNC(=O)[C@H](CC(C)C)NC(=O)[C@@H](NC(=O)[C@@H]1CSSC[C@H](N)C(=O)N[C@@H](CO)C(=O)N[C@@H](CC(N)=O)C(=O)N[C@@H](CC(C)C)C(=O)N[C@@H](CO)C(=O)N[C@@H]([C@@H](C)O)C(=O)N1)C(C)C)C(=O)N[C@@H](CO)C(=O)N[C@@H](CCC(N)=O)C(=O)N[C@@H](CCC(=O)O)C(=O)N[C@@H](CC(C)C)C(=O)N[C@@H](Cc1c[nH]cn1)C(=O)N[C@@H](CCCCN)C(=O)N[C@@H](CC(C)C)C(=O)N[C@@H](CCC(N)=O)C(=O)N[C@H](C(=O)N[C@@H](Cc1ccc(O)cc1)C(=O)N1CCC[C@H]1C(=O)N[C@@H](CCCNC(=N)N)C(=O)N[C@H](C(=O)N[C@@H](CC(N)=O)C(=O)N[C@H](C(=O)NCC(=O)N[C@@H](CO)C(=O)NCC(=O)N[C@H](C(=O)N1CCC[C@H]1C(N)=O)[C@@H](C)O)[C@@H](C)O)[C@@H](C)O)[C@@H](C)O [standard salmon calcitonin, salmon calcitonin]","greater than 4,000 IU/mg",
"(1,7-α-L-aminosuberic acid)eel calcitonin",,about 3400 IU/mg.
eel calcitonin [synthetic eel calcitonin],,around 4300 IU/mg.
